What was measured:
Settings in all cases: exposure: 5-72 hpf
[1] = tested on: Danio rerio embryo (fli1:egfp); assay: heart rate at 72 hpf (beats per minute); higher = faster heart rate
Method: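 fli1:egfp zebrafish embryos exposed 5-72 hpf to chemical (0.05-50 µM, 0.1% DMSO) in 384-well plates; heart rate at 72 hpf quantified from stream acquisitions by semi-automated MetaXpress journal (peak counting); only embryos in concentrations passing survival/body-length criteria analyzed.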

[2] = tested on: Danio rerio embryo (fli1:egfp); assay: body length at 72 hpf (µm); higher = longer body (less growth inhibition)
Method: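 Transgenic fli1:egfp zebrafish embryos (one per well, 384-well plate) exposed statically from 5 to 72 hpf at 28 °C to chemical (0.05-50 µM, 0.1% DMSO); at 72 hpf anesthetized and imaged on ImageXpress; body length of live, hatched, correctly oriented embryos measured by automated MetaXpress journal. Dead/unhatched/misoriented embryos have no value.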

[3] = tested on: Danio rerio embryo (fli1:egfp); assay: pericardial area at 72 hpf (image area units (not stated)); higher = larger pericardial area (edema)
Method: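 fli1:egfp zebrafish embryos exposed 5-72 hpf to chemical (0.05-50 µM, 0.1% DMSO); pericardial area at 72 hpf measured by semi-automated MetaXpress journal (increase indicates edema).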

[4] = tested on: Danio rerio embryo (fli1:egfp); assay: arterial (dorsal aorta) circulation score at 72 hpf (normalized DA-Max (arbitrary units)); higher = more circulation
Method: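 fli1:egfp zebrafish embryos exposed 5-72 hpf to chemical (0.05-50 µM, 0.1% DMSO); arterial circulation at 72 hpf quantified from stream acquisitions of the dorsal aorta by FFT-based analysis (DA-Max, normalized dorsal aorta signal); only concentrations passing survival/body-length criteria analyzed.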

[5] = tested on: Danio rerio embryo (fli1:egfp); assay: intersegmental vessel area normalized to body length at 72 hpf (ISV area / body length (normalized units)); higher = more vessel area
Method: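 fli1:egfp zebrafish embryos exposed 5-72 hpf to chemical (0.05-50 µM, 0.1% DMSO); intersegmental vessel (ISV) eGFP area quantified by MetaXpress journal at 72 hpf and normalized to body length.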

CO/N=C(/C1=NOCCO1)c1ccccc1Oc1ncnc(Oc2ccccc2Cl)c1F [Fluoxastrobin]
Settings | arterial, [4] | body length at 72 hpf, [2] | heart rate at 72 hpf, [1] | intersegmental vessel area normalized, [5] | pericardial area at 72 hpf, [3]
0.0061 µM | 13.7 | 2970 | 182 | 70.3 | 12700
0.0122 µM | 15 | 2930 | 189 | 71.6 | 14000
0.0244 µM | 11.9 | 2900 | 188 | 76 | 13500
0.05 µM | 15.2 | 2970 | 194 | 79.4 | 14300
0.098 µM | 12.6 | 2980 | 198 | 82.8 | 14900
0.195 µM | 16.2 | 2990 | 198 | 75.3 | 14200
0.39 µM | 13.1 | 2970 | 194 | 77.9 | 15000
0.78 µM | 13.9 | 2940 | 191 | 67.2 | 13900
1.56 µM | 12.1 | 2910 | 177 | 80.3 | 17100
3.125 µM | 6.76 | 3010 | 161 | 64.8 | 28800

C#CCN1C(=O)COc2cc(F)c(N3C(=O)C4=C(CCCC4)C3=O)cc21 [Flumioxazin]
Settings | arterial, [4] | body length at 72 hpf, [2] | heart rate at 72 hpf, [1] | intersegmental vessel area normalized, [5] | pericardial area at 72 hpf, [3]
0.05 µM | 6.76 | 3020 | 175 | 73.7 | 17000
0.098 µM | 5.49 | 2970 | 169 | 74.8 | 17800
0.195 µM | 5.79 | 3020 | 160 | 82.8 | 18200
0.39 µM | 4.85 | 2920 | 155 | 68.9 | 19000
0.78 µM | 5.18 | 3030 | 156 | 68.8 | 23000
1.56 µM | 4.72 | 2960 | 164 | 74.8 | 18100
3.125 µM | 4.39 | 3000 | 182 | 74 | 18700
6.25 µM | 4.22 | 3000 | 169 | 69.6 | 19200
12.5 µM | 4.91 | 2990 | 182 | 75.9 | 19300
25 µM | 4.04 | 2920 | 166 | 86.4 | 17700
50 µM | 6.16 | 2920 | 166 | 79 | 21100

CN(C)C(=S)SSC(=S)N(C)C [Thiram]
Settings | arterial, [4] | body length at 72 hpf, [2] | heart rate at 72 hpf, [1] | intersegmental vessel area normalized, [5] | pericardial area at 72 hpf, [3]
95 pM | 9.22 | 3070 | 180 | 95.8 | 11600
0.00019 µM | 11.1 | 3010 | 187 | 101 | 11600
0.00038 µM | 9.48 | 3060 | 179 | 97.6 | 12500
0.00076 µM | 10.3 | 3020 | 192 | 98.6 | 11500
0.0015 µM | 11 | 3050 | 191 | 95.6 | 11200
0.003 µM | 9.4 | 3070 | 196 | 99.4 | 12900
0.0061 µM | 8.74 | 3050 | 196 | 110 | 14600
0.0122 µM | 9.58 | 3070 | 189 | 99.1 | 12000
0.0244 µM | 11.3 | 3080 | 179 | 97.9 | 12400

C#CCOC(=O)[C@@H](C)Oc1ccc(Oc2ncc(Cl)cc2F)cc1 [Clodinafop-propargyl]
Settings | arterial, [4] | body length at 72 hpf, [2] | heart rate at 72 hpf, [1] | intersegmental vessel area normalized, [5] | pericardial area at 72 hpf, [3]
0.0244 µM | 11.8 | 3010 | 177 | 65.9 | 14100
0.05 µM | 14.5 | 2990 | 168 | 84.8 | 13100
0.098 µM | 12.3 | 2960 | 173 | 79 | 12900
0.195 µM | 16.7 | 3060 | 183 | 76.8 | 13800
0.39 µM | 14.4 | 3000 | 188 | 87.1 | 15200
0.78 µM | 14.4 | 3000 | 185 | 73.6 | 15400
1.56 µM | 12 | 3030 | 190 | 84 | 13500
3.125 µM | 14.8 | 3030 | 191 | 82.7 | 12900
6.25 µM | 12.5 | 2930 | 193 | 82.8 | 12900
12.5 µM | 13.6 | 2940 | 196 | 89.6 | 13000

CCCCSP(=O)(SCCCC)SCCCC [Tribufos]
Settings | arterial, [4] | body length at 72 hpf, [2] | heart rate at 72 hpf, [1] | intersegmental vessel area normalized, [5] | pericardial area at 72 hpf, [3]
0.05 µM | 11.1 | 2900 | 166 | 79.6 | 13400
0.098 µM | 14.1 | 2950 | 161 | 84.8 | 13600
0.195 µM | 14.9 | 2990 | 182 | 92.3 | 14700
0.39 µM | 15.4 | 2940 | 169 | 83.8 | 13700
0.78 µM | 14.8 | 2940 | 167 | 86 | 14600
1.56 µM | 16.1 | 2910 | 164 | 87.5 | 14200
3.125 µM | 14.5 | 2980 | 172 | 81.8 | 13300
6.25 µM | 15 | 2970 | 176 | 94.4 | 15200
12.5 µM | 13.9 | 2870 | 166 | 81.3 | 13400
